Laboratory results published in US8791158B2, “Methods of treating meibomian gland dysfunction” (GTX, Inc., priority 2010, dated 2014).
Where two headings read alike, the source gives them in different places. Marks after values point to notes of the source that are not given here.

Legend:
[1] = test system: acute orchiectomized (ORX) rabbit model; test: Oil-Red-O lipid staining score of Meibomian gland (eyelid) sections, Example 4; assay type: in vivo; conditions: ORX rabbits, topical 2.5 mg/kg; scale 0-4 by % cells stained; sham 3.75, ORX vehicle 3.2
Method: At the end of the study, the animals were euthanatized. The left harderian and Meibomian glands were collected for lipid analysis and snap frozen using an ethanol:dry ice bath. Samples were stored at −80° C. until shipment for analysis. The right eyelids were embedded in OCT medium and shipped to Paragon Biosciences (Washington D.C.) for histology and Oil-red-O quantification of lipids. Images of three separate fields were taken from each eyelid at random and the amount of cells staining red in each field was scored using commercially available software. A scoring scheme was adopted with a scale of 0-4 to evaluate the staining intensities with 0=<1% cells stained, 1+ for 2-5% of cells stained, 2+=6-10% stain, 3+=11-20% staining, 4+ for >21% cells stained.
Oil-Red-O is a lipophilic dye that is commonly used to stain lipid containing cells in histological sections. The amount of Oil-Red-O stain in each section is proportional to the number of cells synthesizing or storing lipid. A relative scoring system was adopted to evaluate the differences in lipid content of the Meibomian gland sections from treated and untreated animals in the study. […] Upon treatment with Compound 2, the lipid staining was seen to increase to that of the intact animals (score=3.8).

[2] = Pharmacokinetic analysis of rabbit plasma after topical dosing, Example 5; assay type: in vivo; conditions: for Amount of drug absorbed into systemic circulation at lower doses compared to exposure at 2.5 mg/kg: lower topical doses vs 2.5 mg/kg (Table 6); for AUC: rabbit, plasma, topical or ocular, day 11, read-out: Systemic AUC
Method: (§1) Immediately after recovery from anesthesia, the animals were dosed with the appropriate test articles as indicated above. Drug dosing was performed once daily for 14 d. Blood samples were collected on day 11 of dosing at 0, 30, 60, 120, 240 and 1440 minutes post administration and to plasma separated for LCMS analysis of parent drug concentrations. Tears were collected using Schirmer tear strips (Alcon, Tex.) on day 0 before surgery and 24 hours after the last administration of drug (day 15). The tears were stored at −80° C. until shipment for lipid analysis. Lipids were hydrolyzed, extracted from the Schirmer strips, derivatized, and subjected to GC-FID to evaluate the lipid composition. The samples were evaluated for the presence of 28 saturated and unsaturated fatty acids that included methyl caprate (C10:0), methyl laurate (C12:0), methyl 11-dodecenoate (C12:1), methyl myri state (C14:0), methyl myristoleate (C14:1), methyl palmitate (C16:0), methyl palmitoleate (C16:1), methyl stearate (C18:0), methyl oleate (C18:1), methyl vaccenate (C18:1), methyl linoleate (C18:2), methyl gamma linoleate (C18:3), methyl linoleate (C18:3), methyl arachidate (C20:0), methyl 11-eicosenoate (C20:1), methyl 11,14 eicosadinoate (C20:2), methyl 8,11,14 eicosatrienoate (C20:3), methyl eicosapentaenoate (C20:5), methyl behenate (C22:0), methyl erucate (C22:1), methyl 13,16 docosaenoate (C22:2), methyl docosatetraenoate (C22:4), methyl docosapentaenoate (C22:5), methyl docosahexaenoate (C22:6), methyl lignocerate and (C24:0), methyl nervonate (C24:1). Area under the curve for each individual peak was determined using the GC ChemStation software. To normalize for the tear content, the lipid composition was expressed as a ratio of the lipid that was most affected by castration (palmitate) to one which remained relatively constant (stearate).
Plasma samples collected after dosing were analyzed using an LCMS/MS method. Briefly, plasma samples were prepared by protein precipitation extraction. (S)—N-(4-Cyano-3-(trifluoromethyl)phenyl)-3-(4-chlorophenoxy)-2-hydroxy-2-methylpropanamide was used as internal standard. The analysis of Compound 1 and Compound 2 was performed using an LC-MS/MS system consisting of an Agilent 1100 HPLC with an MDS/Sciex 4000 Q-Trap™ mass spectrometer. The separation was achieved using a C18 analytical column (Alltima™, 2.1×100 mm, 3 μm) protected by a C18 guard column (SecurityGuard™ 4.0×2.0 mm ID, Phenomenex). Mobile phase consisted of 60% acetonitrile, 40% water and 0.1% formic acid. Mobile phase was delivered at a flow rate of 0.3 mL/min Multiple reaction monitoring (MRM) scans were performed using curtain gas and a source temperature of 500° C. Molecular ions were formed using an ion spray voltage of −4500 V. Product ions were formed in nitrogen gas at a declustering potential of −55 V (Compound 1), −64 V (Compound 2), and −78 V (Internal standard) and collision energy of −24.0 V (Compound 1, m/z 388.0→117.9), −26.0 V (Compound 2, m/z 406.1→135.9), and −22.4 V (Internal standard, m/z 396.9→241.0). The plasma concentration—time data were analyzed by non-compartmental methods using WinNonlin (Version 3.1, Pharsight Corporation, Mountain View, Calif., USA). The area under the plasma concentration—time curve from time zero to infinity (AUC) was calculated by the trapezoidal rule with extrapolation to time infinity.
Systemic exposures after topical administration of the blood was determined in peripheral blood samples obtained at 30, 60, […], 240 and 1440 minutes after drug administration on day 11 of the study.

[3] = test system: orchiectomized (ORX) rabbits; test: Dose effect on palmitate:stearate ratio in tears, harderian and Meibomian glands, Example 5; assay type: in vivo, rabbit; conditions: for Palmitate:stearate ratio in Meibomian gland / Palmitate:stearate ratio in harderian gland / Palmitate:Stearate Ratio in Tears: ORX rabbits; for Palmitate:stearate ratio in Meibomian gland / Palmitate:stearate ratio in harderian gland: mean; for Increase of lipid (palmitate:stearate) ratio in harderian glands: topical 1.25 mg/kg (highest dose tested); for Change in Meibomian gland lipids / Dose dependence of palmitate:stearate ratio in harderian glands / Dose dependence of palmitate:stearate ratio in tears: topical 0.625 and 1.25 mg/kg; for Palmitate:Stearate Ratio in Tears: day 15, mean
Excerpt: The goal of this study was to determine the effect of dosage amounts of Compounds 1 and 2 on tear composition.
Thirty New Zealand white rabbits weighing approximately 3 lbs were allowed to acclimate for two weeks before the start of the study Animals were weighed on day 0 of the study, randomized according to body weight and allotted to the following orchiectomized (ORX) dose groups:
Surgeries for the study were staggered to limit the maximum number of surgeries per day to six. One animal from each group was entered into the study every day and castration was performed as described below. Animals were premedicated with glycopyrrolate (0.02 mg/kg) and anesthesia was induced with a combination of ketamine (15 mg/kg): medetomidine (0.25 mg/kg). Anesthesia was maintained with isoflurane (1 liter/hr). Orchiectomy was performed using a scrotal incision. Animals were reversed from anesthesia using atipamezole (1 mg/kg) SQ. Analgesia was provided with buprenorphine (0.05 mg/kg) SQ immediately after the animal's regained sternal recumbency.
as §1
At the end of the study, the animals were euthanatized. The harderian and Meibomian glands were collected for lipid analysis and snap frozen using an ethanol: dry ice bath. Samples were stored at −80 C until ready to ship for analysis.
Lipids in rabbit tears are derived from secretions of the harderian and Meibomian glands. Lipid content in the glands was assayed using GCMS. […] The lipid ratio was increased by more than 2-fold by Compound 1 (1.25 mg/kg), while the effect of Compound 2 was even greater with an almost 3-fold increase in the lipid ratio seen at the highest dose tested (1.25 mg/kg).

| Structure (SMILES) | Oil-Red-O score [1] | Amount of drug absorbed into systemic circulation at lower doses compared to exposure at 2.5 mg/kg [2] | AUC ([2]; 0.625 mg/kg, topical 0.625 mpk) [µM·h] | AUC ([2]; 1.25 mg/kg, topical 1.25 mpk) [µM·h] | Palmitate:stearate ratio in Meibomian gland ([3]; topical 0.625 mg/kg) | Palmitate:stearate ratio in harderian gland ([3]; topical 0.625 mg/kg) | Palmitate:stearate ratio in Meibomian gland ([3]; topical 1.25 mg/kg) | Palmitate:stearate ratio in harderian gland ([3]; topical 1.25 mg/kg) | Increase of lipid (palmitate:stearate) ratio in harderian glands [3] | Change in Meibomian gland lipids [3] | Dose dependence of palmitate:stearate ratio in harderian glands [3] | Dose dependence of palmitate:stearate ratio in tears [3] | Palmitate:Stearate Ratio in Tears ([3]; topical 0.625 mg/kg once daily 14 d) | Palmitate:Stearate Ratio in Tears ([3]; topical 1.25 mg/kg once daily 14 d) |
| --- | --- | --- | --- | --- | --- | --- | --- | --- | --- | --- | --- | --- | --- | --- |
| C[C@](O)(COc1ccc(C#N)cc1)C(=O)Nc1ccc(C#N)c(C(F)(F)F)c1 [Compound 1, (S)—N-(4-Cyano-3-(trifluoromethyl)phenyl)-3-(4-cyanophenoxy)-2-hydroxy-2-methylpropanamide] | 3.4 | ⅛^th | 2.87 | 3.99 | 3.29 | 3.45^a,b | 3.68 | 4.87^a,b | more than 2 fold | No statistically significant change | dose dependent increase | no significant dose dependent changes |  |  |
| C[C@](O)(COc1ccc(C#N)c(F)c1)C(=O)Nc1ccc(C#N)c(C(F)(F)F)c1 [Compound 2, (S)—N-(4-cyano-3-(trifluoromethyl)phenyl)-3-(4-cyano-3-fluorophenoxy)-2-hydroxy-2-methylpropanamide] | 3.8 | ¼^th | 3.2 | 6.92 | 3.36 | 6.09^a,b | 3.31 | 5.30^a,b | ~3 fold | No statistically significant change | dose dependent increase | dose dependent increase | 2.67^a,b | 3.93^a,b |
